The values that follow are results of earlier work, collected in patent publication US20240158750A1, “STROMA-FREE NK CELL DIFFERENTIATION FROM HUMAN PLURIPOTENT STEM CELLS” (The Children's Medical Center Corporation, priority 2021, published 2024).

Where only a bound is given, the exact number is not on record here.

Data set [1] addresses T1, class III isoenzyme SIRT1 (Homo sapiens, UniProt Q96EB6).
T1 sequence (Q96EB6 1-747): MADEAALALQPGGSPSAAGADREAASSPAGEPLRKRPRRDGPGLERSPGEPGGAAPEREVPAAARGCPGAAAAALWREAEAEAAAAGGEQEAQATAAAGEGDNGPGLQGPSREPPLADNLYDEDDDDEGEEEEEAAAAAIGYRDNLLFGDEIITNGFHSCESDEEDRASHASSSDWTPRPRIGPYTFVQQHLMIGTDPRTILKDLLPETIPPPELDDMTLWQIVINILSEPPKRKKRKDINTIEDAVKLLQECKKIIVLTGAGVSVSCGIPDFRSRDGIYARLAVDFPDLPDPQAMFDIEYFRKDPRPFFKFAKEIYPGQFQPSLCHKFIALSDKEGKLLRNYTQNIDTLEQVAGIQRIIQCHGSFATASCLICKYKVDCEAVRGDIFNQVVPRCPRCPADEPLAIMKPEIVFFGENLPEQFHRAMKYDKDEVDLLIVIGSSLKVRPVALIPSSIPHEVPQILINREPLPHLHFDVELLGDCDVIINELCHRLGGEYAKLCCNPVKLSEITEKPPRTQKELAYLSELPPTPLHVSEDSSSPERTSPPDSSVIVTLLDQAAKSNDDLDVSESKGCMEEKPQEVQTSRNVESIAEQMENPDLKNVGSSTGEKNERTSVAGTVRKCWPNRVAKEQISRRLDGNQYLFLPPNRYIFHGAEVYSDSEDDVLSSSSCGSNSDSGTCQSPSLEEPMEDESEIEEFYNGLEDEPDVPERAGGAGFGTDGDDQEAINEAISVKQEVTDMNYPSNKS
To be noted: cited from earlier work.

The next data set deals with SET8/PreSET7 (Homo sapiens, UniProt Q9NQR1). The conditions noted are these: SET8/PreSET7, inactive, ECSD enzymatic assay; cited from earlier work.
Another data set deals with PRMT3 (Homo sapiens, UniProt O60678). To be noted: PRMT3, inactive, ECSD enzymatic assay; cited from earlier work.
In another data set the target is T2, SET7/9 (Homo sapiens, UniProt Q8WTS6).
T2 sequence (Q8WTS6 1-366): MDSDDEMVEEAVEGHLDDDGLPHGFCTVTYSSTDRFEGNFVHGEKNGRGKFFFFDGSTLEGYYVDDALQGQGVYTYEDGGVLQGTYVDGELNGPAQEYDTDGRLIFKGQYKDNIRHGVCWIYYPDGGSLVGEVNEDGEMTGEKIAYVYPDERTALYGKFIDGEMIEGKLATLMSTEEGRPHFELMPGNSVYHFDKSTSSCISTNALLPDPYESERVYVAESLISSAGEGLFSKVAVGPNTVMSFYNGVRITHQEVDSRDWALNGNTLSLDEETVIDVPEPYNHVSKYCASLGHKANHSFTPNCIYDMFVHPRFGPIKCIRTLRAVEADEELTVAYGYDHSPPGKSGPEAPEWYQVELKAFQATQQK
To be noted: SET7/9, inactive, ECSD enzymatic assay; cited from earlier work.

The next data set has as its target T3, PKMT G9a (Homo sapiens, UniProt Q96KQ7).
T3 sequence (Q96KQ7 1-1210): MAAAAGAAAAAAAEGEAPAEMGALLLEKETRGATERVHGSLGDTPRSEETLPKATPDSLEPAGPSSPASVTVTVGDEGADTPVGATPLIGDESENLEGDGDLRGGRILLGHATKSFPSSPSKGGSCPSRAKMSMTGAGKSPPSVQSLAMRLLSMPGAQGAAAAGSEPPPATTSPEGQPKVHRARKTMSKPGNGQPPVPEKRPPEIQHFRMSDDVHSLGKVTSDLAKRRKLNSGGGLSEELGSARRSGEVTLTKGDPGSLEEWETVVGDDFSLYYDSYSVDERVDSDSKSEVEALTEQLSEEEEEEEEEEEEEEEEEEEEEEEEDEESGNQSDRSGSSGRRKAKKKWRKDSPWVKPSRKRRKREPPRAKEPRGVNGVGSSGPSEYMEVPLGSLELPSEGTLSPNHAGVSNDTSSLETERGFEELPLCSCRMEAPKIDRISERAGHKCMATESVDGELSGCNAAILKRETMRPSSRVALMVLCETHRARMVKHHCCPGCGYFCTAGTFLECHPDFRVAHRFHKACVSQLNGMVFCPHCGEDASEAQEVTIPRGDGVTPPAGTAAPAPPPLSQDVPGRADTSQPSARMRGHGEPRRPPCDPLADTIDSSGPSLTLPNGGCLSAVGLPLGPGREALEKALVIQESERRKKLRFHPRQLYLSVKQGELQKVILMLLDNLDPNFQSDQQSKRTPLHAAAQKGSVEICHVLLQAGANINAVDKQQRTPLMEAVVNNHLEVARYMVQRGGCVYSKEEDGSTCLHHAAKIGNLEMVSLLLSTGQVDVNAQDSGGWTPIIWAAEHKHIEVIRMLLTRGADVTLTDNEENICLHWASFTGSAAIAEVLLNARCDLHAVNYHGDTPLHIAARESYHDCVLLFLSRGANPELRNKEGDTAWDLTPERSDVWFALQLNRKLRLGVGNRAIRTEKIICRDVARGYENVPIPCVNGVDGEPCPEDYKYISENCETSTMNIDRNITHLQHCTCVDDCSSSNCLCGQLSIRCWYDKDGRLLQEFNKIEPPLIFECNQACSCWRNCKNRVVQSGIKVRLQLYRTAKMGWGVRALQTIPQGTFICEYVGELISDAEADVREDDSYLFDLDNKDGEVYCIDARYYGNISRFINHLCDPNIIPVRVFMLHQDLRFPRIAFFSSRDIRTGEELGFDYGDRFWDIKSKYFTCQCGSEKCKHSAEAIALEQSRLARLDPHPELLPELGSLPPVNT
To be noted: based on Morrison Ki; cited from earlier work.

The target in another data set is T4, JMJD2E (Homo sapiens, UniProt B2RXH2).
T4 sequence (B2RXH2 1-506): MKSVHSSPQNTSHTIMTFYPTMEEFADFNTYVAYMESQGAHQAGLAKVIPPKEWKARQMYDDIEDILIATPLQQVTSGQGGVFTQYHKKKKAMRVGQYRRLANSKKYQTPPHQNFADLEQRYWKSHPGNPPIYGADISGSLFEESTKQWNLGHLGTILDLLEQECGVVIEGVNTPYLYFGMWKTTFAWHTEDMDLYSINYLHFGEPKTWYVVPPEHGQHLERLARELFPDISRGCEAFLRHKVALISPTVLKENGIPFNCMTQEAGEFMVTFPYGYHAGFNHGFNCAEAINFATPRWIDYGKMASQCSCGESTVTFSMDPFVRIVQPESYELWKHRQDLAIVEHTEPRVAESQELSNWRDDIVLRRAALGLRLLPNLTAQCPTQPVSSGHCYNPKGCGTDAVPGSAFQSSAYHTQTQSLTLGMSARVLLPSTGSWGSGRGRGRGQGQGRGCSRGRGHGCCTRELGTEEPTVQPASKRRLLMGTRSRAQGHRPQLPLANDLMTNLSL
The conditions noted are these: ECSD enzymatic assay, cited from earlier work.

A further data set addresses T5, G9a/GLP (Homo sapiens, UniProt Q96KQ7).
T5 sequence (Q96KQ7 1-1210): T3 sequence (Q96KQ7 1-1210)
The conditions noted are these: SAM-competitive; cited from earlier work.

The test system of the next data set is G9a. To be noted: cited from earlier work.
The target in the next data set is T6, DIM5 (Neurospora crassa, UniProt Q8X225).
T6 sequence (Q8X225 1-331): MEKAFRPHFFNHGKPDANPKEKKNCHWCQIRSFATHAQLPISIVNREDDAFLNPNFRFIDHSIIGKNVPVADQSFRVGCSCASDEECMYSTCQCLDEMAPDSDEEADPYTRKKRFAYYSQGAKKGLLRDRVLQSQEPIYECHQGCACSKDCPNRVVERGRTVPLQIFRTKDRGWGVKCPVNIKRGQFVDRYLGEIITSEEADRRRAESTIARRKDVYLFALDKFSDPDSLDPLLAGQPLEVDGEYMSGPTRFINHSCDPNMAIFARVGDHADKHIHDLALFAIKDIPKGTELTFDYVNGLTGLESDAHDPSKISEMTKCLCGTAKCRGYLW
The conditions noted are these: cited from earlier work.

The test system of a further data set is Lys27-specific EZH2. To be noted: cited from earlier work.
The next data set deals with T7, Lys4-specific SET7/9 (Homo sapiens, UniProt Q8WTS6).
T7 sequence (Q8WTS6 1-366): T2 sequence (Q8WTS6 1-366)
The conditions noted are these: cited from earlier work.

The next data set deals with T8, Lys20-specific PRSET7 (Homo sapiens, UniProt Q9NQR1).
T8 sequence (Q9NQR1 1-393): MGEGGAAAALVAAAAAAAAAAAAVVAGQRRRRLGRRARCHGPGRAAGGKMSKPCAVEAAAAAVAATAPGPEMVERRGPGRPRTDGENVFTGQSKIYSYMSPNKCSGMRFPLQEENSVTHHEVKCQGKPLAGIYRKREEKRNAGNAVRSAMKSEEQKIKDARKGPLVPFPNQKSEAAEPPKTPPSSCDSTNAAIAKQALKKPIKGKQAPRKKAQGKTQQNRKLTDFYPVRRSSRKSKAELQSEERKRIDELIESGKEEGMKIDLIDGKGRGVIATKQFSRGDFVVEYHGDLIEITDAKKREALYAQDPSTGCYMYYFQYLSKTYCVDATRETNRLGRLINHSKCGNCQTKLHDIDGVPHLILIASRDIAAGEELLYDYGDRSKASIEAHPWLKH
To be noted: cited from earlier work.

Sequence of PRMT3 (O60678 whole entry, species assumed): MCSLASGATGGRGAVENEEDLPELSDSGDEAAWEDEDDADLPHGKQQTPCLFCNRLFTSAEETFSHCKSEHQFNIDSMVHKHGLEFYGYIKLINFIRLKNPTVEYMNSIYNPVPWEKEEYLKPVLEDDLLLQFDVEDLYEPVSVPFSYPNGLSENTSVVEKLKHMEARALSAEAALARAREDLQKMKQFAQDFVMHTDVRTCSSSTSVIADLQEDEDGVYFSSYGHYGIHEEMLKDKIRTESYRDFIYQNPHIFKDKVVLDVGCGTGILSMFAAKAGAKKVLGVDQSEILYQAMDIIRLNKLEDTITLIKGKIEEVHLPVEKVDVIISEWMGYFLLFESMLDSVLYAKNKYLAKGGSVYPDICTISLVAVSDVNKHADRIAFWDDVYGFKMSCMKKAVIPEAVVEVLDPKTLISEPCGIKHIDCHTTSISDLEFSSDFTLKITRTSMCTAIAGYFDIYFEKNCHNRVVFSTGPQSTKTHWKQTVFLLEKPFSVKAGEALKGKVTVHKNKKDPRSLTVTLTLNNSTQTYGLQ

Consider `CCCCc1nc2cc(/C=C/C(=O)NO)ccc2n1CCN(CC)CC` [SB939 (Pracinostat)], for which the “activity against the class III isoenzyme SIRT1” value in data set [1] is given as “no activity”.
For orientation: IC50 means the concentration needed to halve the response being measured. For the compound `COc1cc2c(NC3CCN(C)CC3)nc(N3CCCN(C)CC3)nc2cc1OCCOCCN(C)C` [UNC0321], the IC50 on SET8/PreSET7 was above 40 µM; at PRMT3, above 40 µM; on SET7/9, above 40 µM; at JMJD2E (JMJD2E, inactive), above 40 µM. At PKMT G9a, the “fold more potent than BIX01294” value is on record as around 250 fold. Further, the selectivity result on JMJD2E (G9a over JMJD2E) is listed as “well as JMJD2E (>1000-fold”.
For `COc1ccc(C(=O)Oc2ccc(CCn3c(NC(=O)c4ccc(C(F)(F)F)cc4)nc4cc(C(=O)O)ccc43)cc2)cc1` [BIX-01338], the effective conc. entry at G9a/GLP was “G9a/GLP effective conc. = 15 μM”.
Take Chaetocin: the 50% inhibitory concentration (IC50) is 2.5 µM with G9a; 3 µM on DIM5; above 90 µM with Lys27-specific EZH2; above 90 µM at Lys4-specific SET7/9; above 90 µM on Lys20-specific PRSET7.
